Consider one molecule from patent US9724337B2, “AG-205 for the treatment of breast cancer” (University of Kentucky Research Foundation, priority 2009, dated 2017).

The target of one experiment is Pgrmc1-heme complex (Homo sapiens, UniProt O00264). As to the kind of experiment: Spectroscopic scan of purified Pgrmc1 with AG-205. It counts as binding. As to conditions: AG-205 added to purified Pgrmc1, spectroscopic scan. The procedure:
(A) Pgrmc1 (SEQ ID NO: 7) shares homology with AtMAPR2 (SEQ ID NO: 8) (underlined residues), which was the target for a screen for small molecule ligands. The putative heme-binding Tyr106 and Tyr112 are indicated with black boxes. (B) The molecular structure of AG-205 includes multiple aromatic components. (C) Spectroscopic scan of Pgrmc1 with vehicle control compared with vehicle plus 50 µM AG-205. The decrease in relative absorbance at 400 nm is consistent with an AG-205-induced change in the spectral properties of Pgrmc1-heme. The scan is representative of four separate scans using different Pgrmc1 protein preparations. The lower scan is a comparison of purified Pgrmc1 without and with the vehicle control (DMSO). Panels D (A549 cells) and E (MDA-MB-231 cells) are viability assays of cells maintained in 0.1% serum (solid line) or 10% serum (dashed line) and treated with increasing doses of AG-205. Percent viability was determined by cell counting, and “% viability” refers to the cell number relative to the untreated control.

Another experiment deals with H157. The experiment in a line: AG-205 viability assay in H157 cells. It counts as cell-based. As to conditions: H157, lung, serum-starved, EGFR wild-type. As to the method: (§1) Proliferation, anchorage-independent growth and migration assays. For growth curves, cells were plated in 24 well dishes and grown in 10% serum-containing medium. At various times, the cells were harvested with trypsin and fixed with formaldehyde added to a final concentration of 3.7%. Following the harvest of the final time point, the cells from each time point were counted using a Bright-line hemocytometer (Hausser Scientific).
(§2) MTT viability assays were performed as described previously. Briefly, cells were plated in 96-well tissue culture dishes and grown in various media with different drug doses. The cells were then incubated with 0.5 mg/ml of 3-[4,5-dimethylthiazol-2-y]-2,5-diphenyltetrazolium bromide for 1.5 hours, at which time the media was removed, the precipitated crystals were dissolved in dimethyl sulfoxide, and the absorbance at 590 nm was measured using a Bio-Tek μQuant spectrophotometer.

Another experiment concerns A431. As to the kind of experiment: AG-205 viability assay in A431 cells. It counts as cell-based. As to conditions: A431, epitheloid, serum-starved, EGFR wild-type.
A further experiment has as its system H1650. As to the kind of experiment: AG-205 viability assay in H1650 cells. Format: cell-based. As to the method: (§3) Tissue culture. MDA-MB-468 cells were a kind gift from Dr. Rina Plattner of the University of Kentucky and were maintained in medium consisting of Dulbecco's Modified Eagle Medium containing 10% serum supreme (Fisher) and antibiotics. Cells were grown at 37° C. in 5% CO2 in air. A549 and HCC827 lung cancer cells, as well as SK-Br-3 breast cancer cells were obtained from the ATCC (American Type Culture Collection) and were grown under the same conditions. The H1650 lung cancer cell line was a kind gift from Dr. Heinz Kohler of the University of Kentucky. The Pgrmc1 ligand AG-205 was purchased from Timtec, Inc. The EGFR inhibitor AG1478 was from Biomol, Inc. and was used at a concentration range of 0.8-40 μM.
Proliferation, anchorage-independent growth and migration assays. For growth curves, cells were plated in 24 well dishes and grown in 10% serum-containing medium. […] Following the harvest of the final time point, the cells from each time point were counted using a Bright-line hemocytometer (Hausser Scientific).
MTT viability assays were performed as described previously. […] The cells were then incubated with 0.5 mg/ml of 3-[4,5-dimethylthiazol-2-y]-2,5-diphenyltetrazolium bromide for 1.5 hours, at which time the media was removed, the precipitated crystals were dissolved in dimethyl sulfoxide, and the absorbance at 590 nm was measured using a Bio-Tek μQuant spectrophotometer.

The test system of the next experiment is MDA-MB-468 cells. As to the kind of experiment: Viability / proliferation of MDA-MB-468 cells. Format: cell-based, human. As to the method:
as §3, §1, §2

In experiment [1] the test system is polyADP ribose polymerase (PARP) or caspase 3. As to the kind of experiment: Cleavage of PARP or caspase 3 in AG-205-treated cancer cells. Format: cell-based, human. As to conditions: AG-205-treated cells losing viability. As to the method:
Immunological techniques. Cells were extracted in RIPA buffer (50 mM Tris, pH 8.0, 1% Nonidet P-40, 150 mM NaCl, 0.5% sodium deoxycholate, 0.1% sodium dodecyl sulfate, 1 mM phenylmethylsulfonyl fluoride, 10 μg/ml of aprotinin, leupeptin and pepstatin) for standard western blotting. The antibodies used in the study were anti-caveolin-1 (N-20, Santa Cruz Biologicals, # sc-894), anti-EGFR (1005, Santa Cruz, # sc-03), anti-ku70 (A-9, Santa Cruz # sc-5309), anti-Met (C-12, Santa Cruz # sc-10), anti-PARP (H-250, Santa Cruz # sc-7150), anti-phosphotyrosine (P-Tyr-100, Cell Signaling), anti-Pgrmc1 (Novus Biologics) and anti-tubulin (Neomarkers). Some western blots for Pgrmc1 were performed with a polyclonal antibody called anti-PGR-UK1 which was raised in rabbits to an internal 10 amino acid peptide.

A further experiment deals with EGFR. As to the kind of experiment: Western blot of EGFR levels in MDA-MB-468 cells. It counts as cell-based, human. As to conditions: 12-50 μM dose. As to the method: (§4) Panel A is a diagram indicating the positions of the siRNA molecules targeting Pgrmc1. Exons 1, 2 and 3 are indicated by “ex”. MDA-MB-468 cells were transfected with a control siRNA (siCON, lanes 1 and 3) or two separate siRNAs targeting Pgrmc1 (siPGR and siPGR2, lanes 2 and 4, respectively). In panels B-E and H-L, protein levels were analyzed by western blot for EGFR (B), phospho-tyrosine (C), Pgrmc1 (D) and ku70 (E), as a control for protein loading. Panels F—H show western blot analyses for (F) IGF-1R, (G) c-Kit and (H) tfR. In panels I and J, transcript levels were analyzed by reverse transcriptase-PCR for EGFR (I) and Pgrmc1 (J). The top band indicates the gene of interest, while actin primers were included in the same reaction as a control for cDNA loading. […] In panels K-L, MDA-MB-468 cells were treated with increasing doses of the Pgrmc1 ligand AG-205. Protein expression was analyzed by western blot for EGFR (K) and ku70 (L). Cells were treated with 0 (lanes 1), 2 (lanes 2), 10 (lanes 3) or 50 (lanes 4) μM AG-205 for 24 hours in serum-free medium. In panels M-N, A549 cells were treated with the same doses and analyzed for EGFR (M) and ku70 (N). […] Expression analyses were repeated at least in duplicate throughout.
(§5) Immunological techniques. […]

The subject of a further experiment is ku70. As to the kind of experiment: Western blot of ku70 levels in MDA-MB-468 cells. Format: cell-based, human. As to conditions: AG-205 treatment. As to the method: as §4, §5
For orientation: Immunoblotting shows a protein as a band on a membrane.

Each structure is given as a SMILES string. Where only a bound is given, the exact number is not on record here.

Chain of Pgrmc1-heme complex (O00264 whole entry, one chain of several): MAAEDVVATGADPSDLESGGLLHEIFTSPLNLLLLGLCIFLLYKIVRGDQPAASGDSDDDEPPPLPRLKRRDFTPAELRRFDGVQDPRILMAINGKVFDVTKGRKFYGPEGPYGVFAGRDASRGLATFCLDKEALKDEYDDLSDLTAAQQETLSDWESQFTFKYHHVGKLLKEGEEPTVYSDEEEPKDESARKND

One may read the IC50 as the point on the concentration scale where inhibition reaches its midpoint. For `Cc1ccc2c(c1)[C@H]1CN(C)CC[C@H]1N2C(=O)CSc1nnnn1-c1ccc(Cl)cc1` [AG-205], the “change in absorbance of purified Pgrmc1” value on Pgrmc1-heme complex is “shift in absorbance at approximately 400 nm”. In addition, the half-maximal inhibitory concentration (IC50) was 10 µM with H157; 8 µM with A431; greater than 100 µM in the experiment with H1650 (H1650, lung, serum-starved, EGFR ΔE746-A750); 12 µM in the experiment on MDA-MB-468 cells (MDA-MB-468, breast, serum-starved, EGFR wild-type, read-out: IC50 values for AG-205, Serum-starved). Further, the “sensitivity to growth inhibition” value in the experiment with H1650 (H1650 cells, ΔE746-A750 EGFR) is given as “relatively insensitive”. Further, the cell viability result with MDA-MB-468 cells (MDA-MB-468 cells, 20 μM dose, 72-96 hours after treatment) was “marked loss of viability”. Also, the “viability under normal culture conditions” value with MDA-MB-468 cells (MDA-MB-468 cells, ligand abundant (10% serum)) was “slight increase in viability”. Moreover, in the experiment with MDA-MB-468 cells (MDA-MB-468 cells, wild-type EGFR), the “cell growth inhibition” value was “efficiently inhibited cell growth”. Further, in the experiment on MDA-MB-468 cells (low serum versus 10% serum, P=0.0006 for MDA-MB-468 at 20 μM), the “growth inhibitory activity depending on culture conditions” value is given as “killing cells grown in low serum conditions but not 10% serum”. The “cleavage of PARP or caspase 3” value in experiment [1] was “did not detect an increase”. Besides, the “decrease in EGFR levels” value in the experiment on EGFR was 14 fold. Further, in the experiment with ku70, the Ku70 levels entry was “not affected”.
